Patent EP0357134B1, “Antihypertensive 3-piperidinyl-indazole derivatives” (priority 1988, dated 1990)

How the values were obtained:
Type in all cases: in vivo
[1] = system: beagle dogs; experiment: The apomorphine test in dogs (APO-dog); conditions: Canis lupus familiaris, 1 h; dose protecting 50% of animals from emesis; compound subcutaneously or orally; 0.31 mg/kg (s.c.) apomorphine one hour thereafter; read-out: (APO)-dog test, ED₅₀ in mg/kg
Experimental: The method used is described by P.A.J. Janssen and C.J.E. Niemegeers in Arzneim.-Forsch. (Drug Res.), 9,765-767 (1959). The compounds listed in table 4 were administered subcutaneously or orally to beagle dogs at different doses and the animals were challenged one hour thereafter with a standard dose of 0.31 mg/kg (s.c.) of apomorphine.
The table 4 gives the ED₅₀-values of a number of the compounds under consideration. As used herein, the ED₅₀ value represents the dose which protects 50% of the animals from emesis.

[2] = system: adult male Wistar rats; experiment: Combined test in rats: tryptamine (TRY) test; conditions: Rattus norvegicus, 1.5 h, compound subcutaneously or orally, 40 mg/kg tryptamine i.v. at 90 minutes, read-out: Combined test in rats
Experimental: (§1) The experimental animals used in this test were adult male Wistar rats (weight 240 ± 10g). After an overnight fast, the animals were treated subcutaneously or orally with an aqueous solution of the compound under investigation (1ml/100g body weight) (time = zero) and put in isolated observation cages. […] At the end of this 1 hour period (time = 90 minutes) the same animals were injected intravenously with 40 mg/kg of tryptamine (TRY) and the presence of the typical tryptamine-induced bilateral tonic seizures and hyperaemia of the ears was noted. Two hours after pretreatment (time = 120 minutes) finally, the same animals were challenged with 1.25 mg/kg intravenously of norephinephrine (NOR) and possible mortality was looked for up to 60 minutes later.
(§2) The table 4 gives the ED₅₀-values of a number of the compounds under consideration. As used herein, the ED₅₀-value represents the dose which protects 50% of the animals from apomorphine-, tryptamine- or norepinephrine-induced phenomena.

[3] = system: adult male Wistar rats; experiment: Combined test in rats: apomorphine (APO) test; conditions: Rattus norvegicus, 0.5 h, read-out: Combined test in rats, ED₅₀ in mg/kg (APO)
Experimental: as §1, §2

[4] = system: adult male Wistar rats; experiment: Combined test in rats: norepinephrine (NOR) test; conditions: Rattus norvegicus; protection from norepinephrine-induced mortality; compound subcutaneously or orally; 1.25 mg/kg norepinephrine i.v. at 120 minutes, observed up to 60 minutes; read-out: Combined test in rats; ED₅₀ in mg/kg (NOR)
Experimental: as §1, §2

[5] = protection from tryptamine-induced bilateral tonic seizures, ED₅₀ in mg/kg (TRY)-convulsions
[6] = protection from tryptamine-induced hyperaemia of the ears, ED₅₀ in mg/kg (TRY)-hyperaemia
[7] = dose protecting 50% of animals from apomorphine-induced agitation and stereotypic chewing, compound subcutaneously or orally, 1.25 mg/kg apomorphine hydrochloride i.v. at 30 minutes

Compound	ED50 [1] [mg/kg]	ED50 [2, 5] [mg/kg]	ED50 [2, 6] [mg/kg]	ED50 [3] [mg/kg]	ED50 [4] [mg/kg]	ED50 [3, 7] [mg/kg]
Cc1nc2n(c(=O)c1CCN1CCC(c3n[nH]c4cc(F)ccc34)CC1)CCS2 [Compound 2, 6-[2-[4-(6-fluoro-1H-indazol-3-yl)-1-piperidinyl]ethyl]-2,3-dihydro-7-methyl-5H-thiazolo[3,2-a]pyrimidin-5-one]	0.002	5	0.005	5	0.31	–
Cc1nc2ccccn2c(=O)c1CCN1CCC(c2nn(-c3ccc(F)cc3)c3cc(F)ccc23)CC1 [Compound 9]	–	5	0.08	> 10	5	–
Cc1nc2ccccn2c(=O)c1CCN1CCC(c2nn(C)c3cc(F)ccc23)CC1 [Compound 11]	0.12	0.31	0.005	5	0.08	–
Cc1nc2n(c(=O)c1CCN1CCC(c3n[nH]c4cc(F)ccc34)CC1)CCCC2 [Compound 13]	0.015	1.25	0.02	> 10	0.31	–
Cc1nc2sccn2c(=O)c1CCN1CCC(c2nn(-c3ccc(F)cc3)c3cc(F)ccc23)CC1 [Compound 16]	–	5	0.08	> 10	> 10	–
Cc1nc2sccn2c(=O)c1CCN1CCC(c2n[nH]c3cc(F)ccc23)CC1 [Compound 17]	0.004	5	0.03	5	2	–
Cc1nc2sccn2c(=O)c1CCN1CCC(c2nn(C)c3cc(F)ccc23)CC1 [Compound 18]	0.2	1.25	0.005	–	1.25	5
Cc1nc2scc(C)n2c(=O)c1CCN1CCC(c2nn(-c3ccc(F)cc3)c3cc(F)ccc23)CC1 [Compound 20]	–	≥ 10	0.08	> 10	> 10	–
Cc1nc2scc(C)n2c(=O)c1CCN1CCC(c2nn(C)c3cc(F)ccc23)CC1 [Compound 21]	0.12	0.08	0.005	1.25	0.31	–
Cc1nc2n(c(=O)c1CCN1CCC(c3nn(C)c4cc(F)ccc34)CC1)CCS2 [Compound 25]	< 0.015	1.25	0.01	> 10	0.31	–
Cc1nc2c(C)cccn2c(=O)c1CCN1CCC(c2nn(Cc3ccccc3)c3cc(F)ccc23)CC1 [Compound 29]	0.004	5	≤ 0.16	–	1.25	1.25
COc1ccc(Cn2nc(C3CCN(CCc4c(C)nc5n(c4=O)CCS5)CC3)c3ccc(F)cc32)cc1 [Compound 30, 6-[2-[4-[6-fluoro-1-[(4-methoxyphenyl)methyl]-1H-indazol-3-yl]-1-piperidinyl]ethyl]-2,3-dihydro-7-methyl-5H-thiazolo[3,2-a]pyrimidin-5-one]	> 0.63	10	0.08	> 10	5	–
COc1ccc2c(C3CCN(CCc4c(C)nc5sccn5c4=O)CC3)n[nH]c2c1 [Compound 34]	> 0.01	> 10	1.25	–	1.25	> 10
